Drawing on patent EP4600243A2, “NOVEL BICYCLIC HETEROCYCLYL COMPOUNDS AND USE THEREOF” (Jeil Pharmaceutical Co., Ltd., priority 2022, dated 2024), this text covers inhibition and IC50 for 16 molecules.

Where only a bound is given, the exact number is not on record here.

T2 sequence (P00533 25-1210): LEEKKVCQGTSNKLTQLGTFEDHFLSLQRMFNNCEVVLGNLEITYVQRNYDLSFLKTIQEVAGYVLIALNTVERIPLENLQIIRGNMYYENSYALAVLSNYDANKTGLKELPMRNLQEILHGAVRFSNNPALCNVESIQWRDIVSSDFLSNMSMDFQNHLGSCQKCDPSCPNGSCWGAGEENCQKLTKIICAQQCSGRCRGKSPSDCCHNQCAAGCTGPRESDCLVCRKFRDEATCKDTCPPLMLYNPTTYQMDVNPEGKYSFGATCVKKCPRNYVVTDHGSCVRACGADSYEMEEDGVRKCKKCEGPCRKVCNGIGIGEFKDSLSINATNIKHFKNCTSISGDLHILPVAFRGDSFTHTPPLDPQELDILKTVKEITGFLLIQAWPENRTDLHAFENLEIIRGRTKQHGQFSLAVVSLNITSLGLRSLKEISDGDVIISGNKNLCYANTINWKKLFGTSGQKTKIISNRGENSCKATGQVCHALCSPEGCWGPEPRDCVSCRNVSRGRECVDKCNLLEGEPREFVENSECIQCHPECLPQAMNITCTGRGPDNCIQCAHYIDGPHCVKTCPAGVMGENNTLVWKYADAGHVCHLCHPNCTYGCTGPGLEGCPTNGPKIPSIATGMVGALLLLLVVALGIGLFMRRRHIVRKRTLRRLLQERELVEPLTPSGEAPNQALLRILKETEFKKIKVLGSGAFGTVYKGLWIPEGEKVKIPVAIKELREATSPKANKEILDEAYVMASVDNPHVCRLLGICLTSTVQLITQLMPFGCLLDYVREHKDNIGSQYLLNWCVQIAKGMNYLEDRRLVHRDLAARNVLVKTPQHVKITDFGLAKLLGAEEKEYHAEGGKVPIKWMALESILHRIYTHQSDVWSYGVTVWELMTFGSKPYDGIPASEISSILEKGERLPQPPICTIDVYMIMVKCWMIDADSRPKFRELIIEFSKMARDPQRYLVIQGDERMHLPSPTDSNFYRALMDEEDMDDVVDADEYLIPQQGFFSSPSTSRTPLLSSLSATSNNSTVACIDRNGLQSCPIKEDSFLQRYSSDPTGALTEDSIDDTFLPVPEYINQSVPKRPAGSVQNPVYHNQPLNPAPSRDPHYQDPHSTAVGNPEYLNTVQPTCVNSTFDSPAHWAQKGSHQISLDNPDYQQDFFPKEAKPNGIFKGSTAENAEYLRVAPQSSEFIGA

One assay has as its target T1, protein-protein interaction between SOS1 and KRAS G12C (Homo sapiens, UniProt Q07889).
T1 construct: purchased Cisbio 64KRASG12PEG
T1 sequence (Q07889 1-1333): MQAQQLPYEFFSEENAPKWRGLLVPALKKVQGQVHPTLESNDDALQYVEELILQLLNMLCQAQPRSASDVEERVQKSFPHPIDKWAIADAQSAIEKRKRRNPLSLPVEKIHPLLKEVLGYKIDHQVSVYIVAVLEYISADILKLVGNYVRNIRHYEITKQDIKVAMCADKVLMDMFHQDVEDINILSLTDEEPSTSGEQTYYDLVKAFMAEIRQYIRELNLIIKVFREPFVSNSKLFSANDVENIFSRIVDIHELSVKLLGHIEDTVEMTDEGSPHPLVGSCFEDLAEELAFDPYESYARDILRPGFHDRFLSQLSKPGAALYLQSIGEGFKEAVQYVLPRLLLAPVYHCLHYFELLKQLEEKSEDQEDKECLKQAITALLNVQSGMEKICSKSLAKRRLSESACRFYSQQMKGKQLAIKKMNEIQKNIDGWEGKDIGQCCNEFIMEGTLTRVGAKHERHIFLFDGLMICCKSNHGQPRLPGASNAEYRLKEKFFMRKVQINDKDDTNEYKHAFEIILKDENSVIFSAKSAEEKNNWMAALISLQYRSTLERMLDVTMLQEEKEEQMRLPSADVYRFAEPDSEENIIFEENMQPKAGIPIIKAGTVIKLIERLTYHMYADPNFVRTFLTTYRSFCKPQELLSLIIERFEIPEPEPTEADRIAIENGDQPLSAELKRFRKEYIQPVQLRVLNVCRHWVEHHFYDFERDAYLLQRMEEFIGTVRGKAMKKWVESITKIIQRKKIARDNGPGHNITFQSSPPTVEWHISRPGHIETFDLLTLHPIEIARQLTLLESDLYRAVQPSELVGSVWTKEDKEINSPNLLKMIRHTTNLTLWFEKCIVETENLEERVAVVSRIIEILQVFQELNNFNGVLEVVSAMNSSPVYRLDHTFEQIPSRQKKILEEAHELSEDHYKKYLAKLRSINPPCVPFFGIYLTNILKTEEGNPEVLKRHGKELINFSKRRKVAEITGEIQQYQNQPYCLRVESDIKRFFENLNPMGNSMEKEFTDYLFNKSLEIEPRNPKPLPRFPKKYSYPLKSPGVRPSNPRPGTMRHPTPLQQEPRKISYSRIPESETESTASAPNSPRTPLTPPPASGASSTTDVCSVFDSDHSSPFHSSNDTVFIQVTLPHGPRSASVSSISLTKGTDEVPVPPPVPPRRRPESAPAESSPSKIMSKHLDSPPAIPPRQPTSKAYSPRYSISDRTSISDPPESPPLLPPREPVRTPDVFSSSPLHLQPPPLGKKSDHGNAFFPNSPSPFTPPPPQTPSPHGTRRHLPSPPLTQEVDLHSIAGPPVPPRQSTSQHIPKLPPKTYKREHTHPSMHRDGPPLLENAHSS
Put plainly: KRAS::SOS1 HTRF binding analysis (KRAS G12C/SOS1 binding kit). To be noted: compound at 0.1 uM. As to the method: 1-1. KRAS::SOS1 HTRF binding analysis
An SOS1 inhibitory ability of the example compounds of the present invention was confirmed by identifying the effect of inhibiting a protein-protein interaction between SOS1 and KRAS G12C of the compounds according to examples of the present invention.
Specifically, a KRAS G12C/SOS1 binding kit (64KRASG12PEG, Cisbio, France) was purchased and used. 2 µℓ of Tag1-KRAS G12C and 2 µℓ of GTP were premixed and dispensed 4 µl each into a 384 well plate (6007290, PerkinElmer, USA). 2 µℓ of the compound and 4 µℓ of Tag2-SOS1 were placed and then 10 µℓ of premixed Anti-Tag1 XL665 antibody and Anti-Tag2 Tb cryptate antibody was dispensed to each well. The plates were sealed and allowed to react at room temperature for one hour and 40 minutes, and then 665 nm wavelength and 620 nm wavelength were measured using a HTRF® compatible reader (Synergy H4, BioTeK, USA), and the ratio of receptor and donor emission signals for each well was calculated as 665 nm/620 nm×10^4.
(+++: more than 70 to 100% inhibition, ++: more than 40 to 70% inhibition, +: 0 to 40% inhibition) [Table 4]
Regarding `C[C@@H](Nc1cnnc2ccc(C3=CCNCC3)cc12)c1cccc(C(F)F)c1F` [Example 2, (R)-N-(1-(3-(difluoromethyl)-2-fluorophenyl)ethyl)-6-(1,2,3,6-tetrahydropyridin-4-yl)cinnolin-4-amine], the inhibition at 0.1 µM fell in the range of 40 to 70%.

Regarding `C[C@@H](Nc1cnnc2ccc(N3CCN(C)CC3)cc12)c1cccc(C(F)F)c1F` [Example 5, (R)-N-(1-(3-(difluoromethyl)-2-fluorophenyl)ethyl)-6-(4-methylpiperazin-1-yl)cinnolin-4-amine], the inhibition at 0.1 µM is 40 to 70%.

As to `Cc1c(C#N)cccc1[C@@H](C)Nc1cnnc2ccc(C3=CCN(C)CC3)cc12` [Example 52, (R)-2-methyl-3-(1-(6-(1-methyl-1,2,3,6-tetrahydropyridin-4-yl)cinnolin-4-ylamino)ethyl)benzonitrile], the inhibition at 0.1 µM lay in the range of 0 to 40%.

Consider `C[C@@H](Nc1cnnc2ccc(C3=CCN(C)CC3)cc12)c1cccc(C#N)c1` [Example 53, (R)-3-(1-(6-(1-methyl-1,2,3,6-tetrahydropyridin-4-yl)cinnolin-4-ylamino)ethyl)benzonitrile], for which the inhibition at 0.1 µM is 0 to 40%.

As to `C[C@@H](Nc1cnnc2ccc(N[C@@H]3CCNC3)cc12)c1cccc(C#N)c1` [Example 54, 3-((R)-1-(6-((R)-pyrrolidin-3-ylamino)cinnolin-4-ylamino)ethyl)benzonitrile], the inhibition at 0.1 µM was 0 to 40%.

Turning to `C[C@@H](Nc1cnnc2ccc(N3CC4CC(C3)O4)cc12)c1cc(O)cc(C(F)F)c1` [Example 55, 3-((1R)-1-((6-(6-oxa-3-azabicyclo[3.1.1]heptan-3-yl)cinnolin-4-yl)amino)ethyl)-5-(difluoromethyl)phenol], the inhibition at 0.1 µM lay in the range of 0 to 40%.

For `C[C@@H](Nc1cnnc2ccc(N3CC4CC(C3)O4)cc12)c1cccc(F)c1F` [Example 56, 6-(6-oxa-3-azabicyclo[3.1.1]heptan-3-yl)-N-((R)-1-(2,3-difluorophenyl)ethyl)cinnolin-4-amine], the inhibition at 0.1 µM was in the range of 0 to 40%.

Take `C[C@@H]1CN(c2ccc3nncc(N[C@H](C)c4cccc(C(F)F)c4F)c3c2)CCO1` [Example 57, N-((R)-1-(3-(difluoromethyl)-2-fluorophenyl)ethyl)-6-((R)-2-methylmorpholino)cinnolin-4-amine]: the inhibition at 0.1 µM is 0 to 40%.

Regarding `C[C@H]1CN(c2ccc3nncc(N[C@H](C)c4cccc(C(F)F)c4F)c3c2)CCO1` [Example 59, N-((R)-1-(3-(difluoromethyl)-2-fluorophenyl)ethyl)-6-((S)-2-methylmorpholino)cinnolin-4-amine], the inhibition at 0.1 µM was in the range of 0 to 40%.

As to `C[C@@H](Nc1cnnc2ccc(C3=CCN(C(=O)C4COC4)CC3)cc12)c1cccc(C(F)F)c1F` [Example 60, (R)-(4-(4-(1-(3-(difluoromethyl)-2-fluorophenyl)ethylamino)cinnolin-6-yl)-5,6-dihydropyridin-1(2H)-yl)(oxetan-3-yl)methanone], the inhibition at 0.1 µM was 70 to 100%.

Take `C[C@@H](Nc1cnnc2ccc(C3=CCN(C(=O)C4CC4)CC3)cc12)c1cccc(C(F)F)c1F` [Example 61, (R)-cyclopropyl(4-(4-(1-(3-(difluoromethyl)-2-fluorophenyl)ethylamino)cinnolin-6-yl)-5,6-dihydropyridin-1(2H)-yl)methanone]: the inhibition at 0.1 µM was in the range of 0 to 40%.

As to `C[C@@H](Nc1cnnc2ccc(N3CCN(C(=O)C4CC4)CC3)cc12)c1cccc(C(F)F)c1F` [Example 62, (R)-cyclopropyl(4-(4-(1-(3-(difluoromethyl)-2-fluorophenyl)ethylamino)cinnolin-6-yl)piperazin-1-yl)methanone], the inhibition at 0.1 µM was 40 to 70%.

`C[C@@H](Nc1cnnc2ccc(N3CCN(C(=O)C4CCOCC4)CC3)cc12)c1cccc(C(F)F)c1F` [Example 63, (R)-(4-(4-(1-(3-(difluoromethyl)-2-fluorophenyl)ethylamino)cinnolin-6-yl)piperazin-1-yl)(tetrahydro-2H-pyran-4-yl)methanone]: the inhibition at 0.1 µM was in the range of 40 to 70%.

Regarding `C[C@@H](Nc1cnnc2ccc(N3CCN(C(=O)[C@@H]4CCOC4)CC3)cc12)c1cccc(C(F)F)c1F` [Example 64, (4-(4-((R)-1-(3-(difluoromethyl)-2-fluorophenyl)ethylamino)cinnolin-6-yl)piperazin-1-yl)((R)-tetrahydrofuran-3-yl)methanone], the inhibition at 0.1 µM lay in the range of 70 to 100%.

Consider `C[C@@H](Nc1cnnc2ccc(N3CCN(C(=O)[C@H]4CCOC4)CC3)cc12)c1cccc(C(F)F)c1F` [Example 65, (4-(4-((R)-1-(3-(difluoromethyl)-2-fluorophenyl)ethylamino)cinnolin-6-yl)piperazin-1-yl)((S)-tetrahydrofuran-3-yl)methanone], for which the inhibition at 0.1 µM lay in the range of 40 to 70%.

With `C[C@@H](Nc1cnnc2ccc(N3CCC(NC(=O)C4COC4)CC3)cc12)c1cccc(C(F)F)c1F` [Example 69, (R)-N-(1-(4-(1-(3-(difluoromethyl)-2-fluorophenyl)ethylamino)cinnolin-6-yl)piperidin-4-yl)oxetan-3-carboxamide], the inhibition at 0.1 µM fell in the range of 40 to 70%.

Another assay has as its target T2, EGFR kinase (Homo sapiens, UniProt P00533).
T2 construct: purchased Promega Corporation V3831
The assay is described as follows: EGFR kinase inhibitory analysis (ADP-Glo enzyme analysis system). The assay is classed as biochemical. To be noted: ADP-Glo luminescence. On the procedure: 1-2. EGFR kinase inhibitory analysis
Specifically, an ADP-Glo™ enzyme analysis system (V3831, Promega Corporation, USA) was purchased and used. […] The ADP-Glo™ reagent was added in an amount of 5 µℓ per well and allowed to react at room temperature for 40 minutes to stop the EGFR kinase reaction and to remove unused ATP. 10 µℓ of kinase detection reagent (phosphorylase detection reagent) was added and reacted at room temperature for 30 minutes to convert ADP to ATP and show ATP using luciferase and luciferin. Detection was performed using luminescence of an ELISA reader (Synergy H4, BioTek, USA).
In the case of `C[C@@H](Nc1cnnc2ccc(C3=CCNCC3)cc12)c1cccc(C(F)F)c1F` [Example 2, (R)-N-(1-(3-(difluoromethyl)-2-fluorophenyl)ethyl)-6-(1,2,3,6-tetrahydropyridin-4-yl)cinnolin-4-amine], the IC50 was greater than 10 µM.

With `C[C@@H](Nc1cnnc2ccc(N3CCN(C)CC3)cc12)c1cccc(C(F)F)c1F` [Example 5, (R)-N-(1-(3-(difluoromethyl)-2-fluorophenyl)ethyl)-6-(4-methylpiperazin-1-yl)cinnolin-4-amine], the IC50 was greater than 10 µM.
